Test results from article PMC10054552, “Phototoxic Potential of Different DNA Intercalators for Skin Cancer Therapy: In Vitro Screening” (International Journal of Molecular Sciences, 2023).
Like-named read-outs stand apart in the source and are kept apart here.

Legend:
Assay type in all cases: cell-based, human
HaCaT cells = test: Cytotoxicity (resazurin cell viability) in HaCaT cells; details: Homo sapiens, HaCaT cells, 1.25-320 µM
From the text: (§1) The MET1 SCC cell line (human squamous cell carcinoma) was obtained from Ximbio (London, UK), HaCaT (immortalized human keratinocytes cell line) was obtained from Addexbio (San Diego, CA, USA) and WM983b (human metastatic melanoma cell line) was obtained from Rockland (Pottstown, PA, USA). Cells were maintained in Dulbecco’s Modified Eagle Medium (DMEM) supplemented with 10% (v/v) fetal bovine serum (FBS) for MET1 and HaCaT and 5% (v/v) for WM983b cells, and Pen–Strep (penicillin 100 U/mL and streptomycin 100 µg/mL). Cells were cultivated in an incubator (Sanyo MCO-19AIC-UV) at 37 °C in a 5% CO2 humidified atmosphere.
(§2) First, 96-well plates were seeded with HaCaT and MET1 cells at a density of 20,000 cells/cm² and incubated for 24 h. After that period, the culture medium was replaced by culture medium containing different compounds: MB, AO, GV, QT, CUR, EGCG, PHE, NEO and BIPY. The compounds were diluted in culture medium using a range of concentrations of each compound from 1.25 µM to 320 µM (in quadruplicate). The medium was aspirated from the 96-well plate and replaced by the samples diluted in medium. Cells cultured with complete medium and cells cultured with medium supplemented with 0.2% (v/v) or 10% (v/v) of DMSO were used as negative (NC), solvent (SC) and positive controls (PC), respectively. The plates were incubated for 24 and 48 h, followed by evaluation of cell viability using a colorimetric assay. Cells containing samples were washed with PBS supplemented with calcium and magnesium; then, resazurin solution diluted in DMEM at 0.02 mg/mL was added. The medium containing resazurin was also dispensed in wells without cells, which were used as references. After 3 h of incubation, the absorbance was measured in a microplate reader (ELX800UV, Biotek Instruments) at wavelengths of 570 nm and 600 nm. The corrected absorbance was proportional to cell viability. Propagation of uncertainties was used to calculate the combined standard uncertainty. For the cytotoxicity study using WM983b cells, plates were seeded at a density of 40,000 cells/cm², and cells were treated only with MB and AO.

[1] = Phototoxicity assay in MET1 cells (irradiation 2.5 J/cm², resazurin); details: human, MET1 squamous cell carcinoma cells; MET1 cells, 457 nm, all investigated concentrations (1.25-40 µM); read-out: cell viability under 457 nm light
Protocol: (§3) The […] SCC cell line (human squamous cell carcinoma) was obtained from Ximbio (London, UK), HaCaT (immortalized human keratinocytes cell line) was obtained from Addexbio (San Diego, CA, USA) and WM983b (human metastatic melanoma cell line) was obtained from Rockland (Pottstown, PA, USA). […] Cells were cultivated in an incubator (Sanyo MCO-19AIC-UV) at 37 °C in a 5% CO2 humidified atmosphere. […] The plates were incubated for 24 h, followed by washing with PBS supplemented with calcium and magnesium. Afterwards, complete culture medium without phenol red was added, and the plates were irradiated from above and submitted to a dose of 2.5 J/cm2 of irradiation emitted by different wavelength light sources coupled with a homemade irradiation system created in our laboratory. […] This experiment was performed in an incubator that was able to keep plates in a dark environment; therefore, the dark control plates were protected from any light source, as well as the others, with the exception of the irradiation that each one was submitted to. Plates were incubated for another 24 h, and finally, the resazurin assay was performed as previously described in Section 3.3. For the phototoxicity study using WM983b cells, plates were prepared at a cell density of 40,000 cells/cm2, and cells were treated with MB and AO only.

MET1 cells [2] = test: as above; details: Homo sapiens, MET-1, light or radiation study, MET1 cells, treated 24 h
Protocol: as §3

MET1 cells [3] = test: Intracellular ROS production in MET1 cells (DHE fluorescence); details: 5 µM
Protocol: MET1 cells were seeded at a density of 20,000 cells/cm² in 24-well plates. After 24 h, cells were treated with MB and AO diluted in culture medium at low concentrations (1.25 µM, 2.5 µM and 5 µM). The medium culture was replaced by the prepared samples. Plates were incubated for 24 h; then, cells were washed with medium, and DMEM without phenol red was added. The plates were submitted to 2.5 J/cm² irradiation under red light at 640 nm for MB and 457 nm blue light for AO. Dihydroethidium (DHE) was used to evaluate ROS production. For this assay, the medium was removed after irradiation, and 20 µM of DHE diluted in medium was added. The plate was incubated for 20 min, washed with medium and incubated 20 min with Hoechst 33342 (5 µg/mL), which was used to stain the cells’ nuclei. After removing the excess dye, culture medium was added, and the cells were immediately observed using a Nikon Ti-S epifluorescence microscope. Cells were examined using a 40 × objective in random areas of 4 different wells under the same treatment condition. Images were analyzed using ImageJ software, and the intensity was measured according to integrated density values of red fluorescence.

WM983b cells = test: Cytotoxicity (resazurin cell viability) in WM983b cells; details: for IC50: Homo sapiens, 1.25-320 µM
From the text: as §1, §2

## CN(C)c1ccc2cc3ccc(N(C)C)cc3nc2c1 [Acridine orange, acridine orange]
HaCaT cells; 24 h exposure, read-out: IC50 HaCaT Cells 24 h
  IC50: 10.5 µM
HaCaT cells; 48 h exposure, read-out: IC50 HaCaT Cells 48 h
  IC50: 6.5 µM
[1]
  viability at 24 h: < 10%
MET1 cells [2]; 254 nm light, 2.5 J/cm², read-out: IC50 254 nm
  IC50: 7.1 µM
MET1 cells [2]; 457 nm light, 2.5 J/cm², read-out: IC50 457 nm
  IC50: 0.4 µM
MET1 cells [2]; 583 nm light, 2.5 J/cm², read-out: IC50 583 nm
  IC50: 4.1 µM
MET1 cells [2]; 640 nm light, 2.5 J/cm², read-out: IC50 640 nm
  IC50: 6.6 µM
MET1 cells [2]; dark control (no irradiation), read-out: IC50 Dark
  IC50: 11.5 µM
MET1 cells [3]; 457 nm irradiation 2.5 J/cm², vs irradiated control 0 µM
  increase in fluorescence (DHE, integrated density) vs irradiated control: about 2.6 fold
MET1 cells [3]; non-irradiated, vs non-irradiated control 0 µM
  increase in fluorescence intensity (DHE, integrated density) vs non-irradiated control: about 1.8 fold
WM983b cells; 24 or 48 h
  concentration above which the relative cell population falls below 70%: > 20 µM
WM983b cells; 24 h exposure, read-out: IC50 WM983b cells 24 h
  IC50: 25.2 µM
WM983b cells; 48 h exposure, read-out: IC50 WM983b cells 48 h
  IC50: 6.6 µM
